Test results: patent US20160257697A1, “THIOPHENE-SUBSTITUTED TETRACYCLIC COMPOUNDS AND METHODS OFUSE THEREOF FOR THE TREATMENT OF VIRAL DISEASES” (priority 2013, published 2016)
Read-outs that look alike come from different tables or passages of the source.

What was measured:
Assay in all cases: microbe, parasite or virus in culture
Type in all cases: cell-based, Hepatitis C virus (HCV)
Conditions in all cases: Replicon Assay A
HCV replicon 1A = system: HCV replicon 1A
Method in brief: (§1)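 Three-day treatment of replicon cells (2000/well, 5% FBS, 0.5% DMSO), followed by TaqMan RT-PCR of replicon RNA with cyclophilin as internal control.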

HCV replicon 2B = system: HCV replicon 2B
Method in brief: as §1

HCV replicon 1AY93H = system: HCV replicon 1AY93H
Method in brief: as §1

[1] = read-out: 1A Y93H IC50, replicon 1AY93H
[2] = read-out: 2B IC50, HCV replicon 2B
[3] = read-out: 1A Y93H IC50, HCV replicon 1A Y93H
[4] = Hepatitis C virus, read-out: 2B IC50 (nM), replicon 2B
[5] = Hepatitis C virus, read-out: 1A Y93H IC50 (nM), replicon 1AY93H

Compound	IC50 (HCV replicon 1A; Hepatitis C virus, replicon 1A) [nM]	IC50 (HCV replicon 1A; HCV replicon 1A) [nM]	IC50 (HCV replicon 2B; [2]) [nM]	IC50 (HCV replicon 1AY93H; [3]) [nM]	IC50 (HCV replicon 2B; [4]) [nM]	IC50 (HCV replicon 1AY93H; [5]) [nM]	further results
COC(=O)N[C@H](C(=O)N1CCC[C@H]1c1ncc(-c2cc(C)c3c(c2)OC(c2cc(C)c(C)s2)n2c-3cc3cc(-c4cnc([C@@H]5CCCN5C(=O)[C@@H](NC(=O)OC)C(C)C)[nH]4)ccc32)[nH]1)C(C)C (single isomer, unassigned) [Compound 15]	0.0029	–	–	–	–	–	IC50 (HCV replicon 2B; read-out: 2B IC50, replicon 2B): 2.28 nM; IC50 (HCV replicon 1AY93H; [1]): 18.1 nM
COCc1ccc(C2Oc3cc(-c4cnc([C@@H]5CCCN5C(=O)[C@@H](NC(=O)OC)C(C)C)[nH]4)cc(F)c3-c3cc4cc(-c5cnc([C@@H]6CCCN6C(=O)[C@@H](NC(=O)OC)[C@@H]6C[C@@H](C)O[C@@H](C)C6)[nH]5)ccc4n32)s1 (single isomer, unassigned) [Compound 533]	–	0.00373	0.429	0.0913	–	–	–
CCc1ccc(C2Oc3cc(-c4cnc([C@@H]5CCCN5C(=O)C(NC(=O)OC)C5CCOC(C)(C)C5)[nH]4)cc(F)c3-c3cc4cc(-c5cnc([C@@H]6CCCN6C(=O)[C@@H](NC(=O)OC)C(C)C)[nH]5)ccc4n32)s1 (single isomer, unassigned) [Compound 165]	–	–	–	–	–	–	IC50 (HCV replicon 1A; replicon 1A): 0.002 nM; IC50 (HCV replicon 2B; read-out: 2B IC50, replicon 2B): 0.24 nM; IC50 (HCV replicon 1AY93H; [1]): 0.27 nM
COC(=O)N[C@H](C(=O)N1CCC[C@H]1c1ncc(-c2ccc3c(c2)OC(c2cc4ccccc4s2)n2c-3cc3cc(-c4cnc([C@@H]5C[C@H]6C[C@H]6N5C(=O)[C@@H](NC(=O)OC)C(C)C)[nH]4)ccc32)[nH]1)C(C)C (single isomer, unassigned) [Compound 608]	–	0.0035	0.031	0.0529	–	–	–
COC(=O)N[C@H](C(=O)N1CCC[C@H]1c1ncc(-c2cc(F)c3c(c2)OC(c2cc4c(s2)CCCC4)n2c-3cc3cc(-c4cnc([C@@H]5CCCN5C(=O)[C@@H](NC(=O)OC)C(C)C)[nH]4)ccc32)[nH]1)C(C)C (single isomer, unassigned) [Compound 55]	0.0019	–	–	–	2.53	3.26	–
COC(=O)NC(C(=O)N1CCC[C@H]1c1ncc(-c2ccc3c(c2)cc2n3C(c3ccc(C4CC4)s3)Oc3cc(-c4cnc([C@@H]5CCCN5C(=O)[C@@H](NC(=O)OC)C(C)C)[nH]4)cc(F)c3-2)[nH]1)C1CC2CCC(C1)O2 (single isomer, unassigned) [Compound 181]	–	–	–	–	0.083	0.054	IC50 (HCV replicon 1A; replicon 1A): 0.0023 nM
COC(=O)N[C@H](C(=O)N1CCC[C@H]1c1ncc(-c2cc(F)c3c(c2)OC(c2ccc(C4CC4)s2)n2c-3cc3cc(-c4cnc([C@@H]5CCCN5C(=O)[C@@H](NC(=O)OC)C(C)C)[nH]4)ccc32)[nH]1)C(C)C (mixture of isomers) [Compound 510]	–	–	–	–	–	–	IC50 (HCV replicon 1A; Hepatitis C virus, HCV replicon 1A): 0.00793 nM; IC50 (HCV replicon 2B; Hepatitis C virus, read-out: 2B IC50, HCV replicon 2B): 0.0488 nM; IC50 (HCV replicon 1AY93H; Hepatitis C virus, read-out: 1A Y93H IC50, HCV replicon 1A Y93H): 0.0979 nM
COC(=O)NC(C(=O)N1CCCC1c1ncc(-c2cc(F)c3c(c2)OC(c2ccc(CC(C)(C)OC)s2)n2c-3cc3cc(-c4cnc(C5CCCN5C(=O)C(NC(=O)OC)C5CCOC(C)(C)C5)[nH]4)ccc32)[nH]1)C(C)C (single isomer, unassigned) [Compound 850]	–	0.0028	–	–	–	–	IC50 (HCV replicon 2B; HCV replicon 2B, read-out: 2B IC50): 0.375 nM; IC50 (HCV replicon 1AY93H; HCV replicon 1A Y93H, read-out: 1A Y93H IC50): 0.855 nM
COC(=O)N[C@H](C(=O)N1CCC[C@H]1c1cnc(-c2ccc3c(c2)cc2n3C(c3cc4ccccc4s3)Oc3cc(-c4cnc([C@@H]5CCCN5C(=O)[C@@H](NC(=O)OC)C5CCOCC5)[nH]4)ccc3-2)[nH]1)C1CCOCC1 (single isomer, unassigned) [Compound 809]	–	0.016	4.2	0.82	–	–	–
COC(=O)N[C@H](C(=O)N1CCC[C@H]1c1ncc(-c2cc(F)c3c(c2)OC(c2cc4c(s2)CCC4)n2c-3cc3cc(-c4cnc([C@@H]5CCCN5C(=O)[C@@H](NC(=O)OC)C5CCOCC5)[nH]4)ccc32)[nH]1)C(C)C (single isomer, unassigned) [Compound 621]	–	0.0031	0.835	0.108	–	–	–
COC(=O)N[C@H](C(=O)N1CCC[C@H]1c1ncc(-c2cc(F)c3c(c2)OC(c2ccc(CC(F)(F)F)s2)n2c-3cc3cc(-c4cnc([C@@H]5CCCN5C(=O)[C@@H](NC(=O)OC)C(C)C)[nH]4)ccc32)[nH]1)C(C)C (single isomer, unassigned) [Compound 124]	0.0018	–	–	–	3.4	1.38	–
CC[C@@H]1CC(C(NC(=O)OC)C(=O)N2CCC[C@H]2c2ncc(-c3ccc4c(c3)cc3n4C(c4ccc(C5CC5)s4)Oc4cc(-c5cnc([C@@H]6CCCN6C(=O)[C@@H](NC(=O)OC)C(C)C)[nH]5)cc(F)c4-3)[nH]2)C[C@H](CC)O1 (single isomer, unassigned) [Compound 287]	–	–	–	–	–	–	IC50 (HCV replicon 1A; replicon 1A): 0.0082 nM; IC50 (HCV replicon 2B; read-out: 2B IC50, replicon 2B): 0.49 nM; IC50 (HCV replicon 1AY93H; [1]): 0.074 nM
COC(=O)N[C@H](C(=O)N1CCC[C@H]1c1ncc(-c2cc(F)c3c(c2)OC(c2cc(C)sc2C)n2c-3cc3cc(-c4cnc([C@@H]5CCCN5C(=O)[C@@H](NC(=O)OC)C(C)C)[nH]4)ccc32)[nH]1)C(C)C (single isomer, unassigned) [Compound 319]	0.001	–	–	–	8.06	9.38	–
